Assay results as given in ChEMBL document CHEMBL3608277 (ACS Med Chem Lett, 2015).
Activity calls are given as the source filed them. The calls are words filed in the database; no cut-off is given here.

What was measured:
[1] = system: Human immunodeficiency virus 1; experiment: Antiviral activity against HIV1 3B infected in CD4/CXCR4 expressing human MAGI cells incubated for 48 hrs by beta-galactosidase reporter gene assay; assay type: functional, organism-based; conditions: Human immunodeficiency virus 1, 3B
[2] = system: Human immunodeficiency virus 1; experiment: Antiviral activity against HIV1 BaL infected in CD4/CCR5 expressing human MAGI cells incubated for 48 hrs by beta-galactosidase reporter gene assay; assay type: functional, organism-based; conditions: Human immunodeficiency virus 1, BaL
[3] = target: C-X-C chemokine receptor type 4 (Homo sapiens) (UniProt P61073); experiment: Inhibition of CXCR4 in human Jurkat cells assessed as reduction in HIV-Nef-M1-induced mitochondrial membrane depolarization at 0.01 to 100 uM by JC1 dye based fluorescence depolarization assay; assay type: cell-based
C-X-C chemokine receptor type 4 (Homo sapiens), sequence (P61073 whole entry): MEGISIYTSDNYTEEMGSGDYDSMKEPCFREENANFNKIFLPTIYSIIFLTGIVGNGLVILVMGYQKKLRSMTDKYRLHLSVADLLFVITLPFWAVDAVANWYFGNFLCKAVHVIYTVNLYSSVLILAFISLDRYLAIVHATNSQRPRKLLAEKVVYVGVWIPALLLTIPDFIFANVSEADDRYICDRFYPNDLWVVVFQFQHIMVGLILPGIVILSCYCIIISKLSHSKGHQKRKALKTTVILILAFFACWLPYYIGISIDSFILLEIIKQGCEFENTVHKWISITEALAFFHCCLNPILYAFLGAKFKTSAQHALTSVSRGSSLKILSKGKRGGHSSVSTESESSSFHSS

[4] = system: Human immunodeficiency virus; experiment: Resistance index, ratio of EC50 for […] HIV containing reverse transcriptase K103N/Y181C mutation to EC50 for wild type HIV; assay type: functional
[5] = Toxicity against human HeLa67 cells; assay type: cell-based
[6] = Toxicity against human PBMC by MTS assay; assay type: cell-based; conditions: read-out: TC50 (the source's name)
[7] = Toxicity against human MAGI cells incubated for 48 hrs by MTS assay; assay type: cell-based; conditions: read-out: TC50
[8] = system: Human immunodeficiency virus 1; experiment: Antiviral activity against HIV1 BaL infected in CD4/CCR5 expressing human PBMC cells by reverse transcriptase activity and/or p24 antigen content detection based assay; assay type: functional, organism-based; conditions: Human immunodeficiency virus 1, BaL
[9] = system: Human immunodeficiency virus 1; experiment: Antiviral activity against HIV1 3B infected in CD4/CXCR4 expressing human PBMC cells by reverse transcriptase activity and/or p24 antigen content detection based assay; assay type: functional, organism-based; conditions: Human immunodeficiency virus 1, 3B
[10] = target: T1, C-C chemokine receptor type 5 (Homo sapiens, UniProt P51681); experiment: Displacement of [125I]-MIP-1beta form CCR5 (unknown origin) at 100 uM
Target sequence in this assay (P51681 whole entry, looked up): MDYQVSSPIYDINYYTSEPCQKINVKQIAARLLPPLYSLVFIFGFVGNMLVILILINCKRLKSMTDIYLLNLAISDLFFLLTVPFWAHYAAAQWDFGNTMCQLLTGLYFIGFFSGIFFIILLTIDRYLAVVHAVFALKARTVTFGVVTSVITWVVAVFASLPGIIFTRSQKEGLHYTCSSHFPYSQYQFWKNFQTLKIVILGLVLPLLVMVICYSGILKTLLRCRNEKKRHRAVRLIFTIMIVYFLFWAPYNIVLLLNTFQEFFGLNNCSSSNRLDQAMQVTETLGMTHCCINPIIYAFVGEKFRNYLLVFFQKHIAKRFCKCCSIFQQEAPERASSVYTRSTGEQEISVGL

[11] = target: T1, C-C chemokine receptor type 5; experiment: Displacement of [125I]-MIP-1beta form CCR5 (unknown origin) at 1 mM
Target sequence in this assay (P51681 whole entry, looked up): as above

[12] = Toxicity against HEK293 cells derived ACTOne-X4 cells; assay type: cell-based; conditions: human
[13] = system: Human immunodeficiency virus 2; experiment: Antiviral activity against HIV2 CDC310319 infected in human PBMC cells; assay type: functional, organism-based; conditions: Human immunodeficiency virus 2, CDC310319, PBMC
[14] = target: C-X-C chemokine receptor type 4 (Homo sapiens) (UniProt P61073); experiment: Displacement of [125I]-SDF1 form CXCR4 (unknown origin) at 1 mM
[15] = Inhibition of HIV pNL4-3 heterodimeric reverse transcriptase p66/p51 incubated at 37 degC for 1 hr by scintillation counting method; design: species or system Human immunodeficiency virus
[16] = system: Human immunodeficiency virus; experiment: Antiviral activity against NNRTI-resistant HIV containing reverse transcriptase K103N/Y181C mutation; assay type: functional, organism-based; conditions: Human immunodeficiency virus 1
[17] = system: Human immunodeficiency virus; experiment: Antiviral activity against wild type HIV; assay type: functional, organism-based; conditions: Human immunodeficiency virus 1
[18] = target: T1, C-C chemokine receptor type 5; experiment: Displacement of [125I]-MIP-1beta form CCR5 (unknown origin)
Target sequence in this assay (P51681 whole entry): as the sequence (P51681 whole entry, looked up) above

Row | SMILES | IC50 [1] [µM] | IC50 [2] [µM] | other results
1 | c1ccc(Cc2cn[nH]c2C2CCN(Cc3cccnc3)CC2)cc1 | 5.8 | 16 | 
2 | Cc1cn([C@H]2C[C@H](N=[N+]=[N-])[C@@H](CO)O2)c(=O)[nH]c1=O |  |  | inhibition [3]: inactive
3 | O=C1Nc2ccc(Cl)cc2[C@@](C#CC2CC2)(C(F)(F)F)O1 [EFAVIRENZ] |  |  | Ratio EC50 [4]: 70
4 | Cc1ccc(-c2ccc3c(c2)C=C(C(=O)Nc2ccc(C[N+](C)(C)C4CCOCC4)cc2)CCC3)cc1.[Cl-] |  |  | Activity [5]: Toxic
5 | CC(C)c1nccc(CN2CCC(c3[nH]ncc3Cc3ccccc3)CC2)n1 | 6.4 | 13 | 
6 | c1ccc(Cc2cn[nH]c2C2CCN(Cc3ccncc3)CC2)cc1 | 0.8 | 3.8 | CC50 [6]: > 100 µM; CC50 at 48 h [7]: > 300 µM; IC50 [8]: 2.3 µM; IC50 [9]: 2.3 µM; inhibition [10]: 38%; inhibition [11]: 88%; CC50 [12]: > 200 µM; IC50 [13]: 31 µM; inhibition [14]: 0%; IC50 [15]: 9 µM; EC50 [16]: 19 µM; EC50 [17]: 0.9 µM
7 | Cc1nnc(C(C)C)n1[C@H]1C[C@H]2CC[C@@H](C1)N2CC[C@H](NC(=O)C1CCC(F)(F)CC1)c1ccccc1 |  |  | inhibition [3]: inactive
8 | c1cc(CN2CCCNCCNCCCNCC2)ccc1CN1CCCNCCNCCCNCC1 |  |  | inhibition [3]: Active
9 | COc1ncc(CN2CCC(c3[nH]ncc3Cc3ccccc3)CC2)cn1 | > 200 | 72 | IC50 [18]: 70 µM

Second part, led by results:

Row | IC50 [1] [µM] | IC50 [2] [µM] | SMILES | other results
10 | 81 | 83 | Nc1ccnc(CN2CCC(c3[nH]ncc3Cc3ccccc3)CC2)n1 | 
11 | 68 | 60 | CCc1cc(CN2CCC(c3[nH]ncc3Cc3ccccc3)CC2)[nH]n1 | 
12 | 25 | 17 | c1ccc(Cc2cn[nH]c2C2CCN(Cc3ccccn3)CC2)cc1 | 
13 | 13 | 17 | Nc1cc(CN2CCC(c3[nH]ncc3Cc3ccccc3)CC2)ncn1 | 
14 | 44 | 64 | c1ccc(-c2cn[nH]c2C2CCN(Cc3cccnc3)CC2)cc1 | 
15 | 57 | 66 | CCc1nccc(CN2CCC(c3[nH]ncc3Cc3ccccc3)CC2)n1 | 
16 | 105 | 95 | Nc1ncc(N2CCC(c3[nH]ncc3Cc3ccccc3)CC2)cn1 | 
